From patent publication EP4755888A1 (ILAb Co., Ltd., priority 2023, dated 2025)

biological target: PD-1/PD-L1 (Homo sapiens, UniProt Q9NZQ7); experiment: TR-FRET PD-1/PD-L1 binding inhibition at the molecular level (free proteins); details: Tag1-PD-L1 and Tag2-PD-1 proteins, twelve concentrations from 200 nM, 2 hours at room temperature, read-out: FRET assay (IC50)
How it was run: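 HTRF read-out at 665/620 nm after 2 h at room temperature. Detection used anti-Tag1 Eu cryptate plus anti-Tag2 XL665 antibodies. Tagged PD-L1 and PD-1 proteins were pre-mixed with compound across twelve […] 1:2 dilutions starting at 200 nM.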

PD-1/PD-L1, sequence (Q9NZQ7 19-238 limits assumed): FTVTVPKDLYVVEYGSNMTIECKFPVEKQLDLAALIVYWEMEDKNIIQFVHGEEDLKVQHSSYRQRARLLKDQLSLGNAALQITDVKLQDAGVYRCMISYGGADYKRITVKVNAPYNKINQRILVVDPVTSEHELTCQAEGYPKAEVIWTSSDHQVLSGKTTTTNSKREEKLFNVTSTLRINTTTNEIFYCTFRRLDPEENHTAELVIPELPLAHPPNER

IC50 | SMILES
< 10 nM | COc1cc(C(=O)Nc2cccc(-c3cccc(NC(=O)c4cc5n(n4)CCCC5NCC(=O)O)c3Cl)c2Cl)cc(F)c1CN1CC[C@@H](O)C1 (stereo partly drawn) [Compound 192, 2-((2-((2,2'-dichloro-3'-(3-fluoro-4-(((R)-3-hydroxypyrrolidin-1-yl)methyl)-5-methoxybenzamido)-[1,1'-biphenyl]-3-yl)carbamoyl)-4,5,6,7-tetrahydropyrazolo[1,5-a]pyridin-4-yl)amino)acetic acid]
10 to 100 nM | COc1cc(-c2cccc(-c3cccc(NC(=O)c4cc5n(n4)CCCC5O)c3Cl)c2Cl)cc(F)c1CN1CC[C@@H](O)C1 (stereo partly drawn) [Compound 117, N-(2,2'-dichloro-3"-fluoro-4"-(((R)-3-hydroxypyrrolidin-1-yl)methyl)-5"-methoxy-[1,1':3',1"-terphenyl]-3-yl)-4-hydroxy-4,5,6,7-tetrahydropyrazolo[1,5-a]pyridine-2-carboxamide]
< 10 nM | Cc1c(NC(=O)c2ccc(CN3CC[C@@H](O)C3)cn2)cccc1-c1cccc(NC(=O)c2cc3n(n2)CCC[C@@H]3N2CCC[C@@H]2CO)c1C [Compound 310, (S)-4-((R)-2-(hydroxymethyl)pyrrolidin-1-yl)-N-(3'-(5-(((R)-3-hydroxypyrrolidin-1-yl)methyl)picolinamido)-2,2'-dimethyl-[1,1'-biphenyl]-3-yl)-4,5,6,7-tetrahydropyrazolo[1,5-a]pyridine-2-carboxamide]
< 10 nM | O=C(Nc1cccc(-c2cccc(NC(=O)c3cc4n(n3)CCCC4N3CC[C@@H](C(=O)O)C3)c2Cl)c1Cl)c1ccc(CN2CC[C@@H](O)C2)cn1 (stereo partly drawn) [Compound 105, (3R)-1-(2-((2,2'-dichloro-3'-(5-(((R)-3-hydroxypyrrolidin-1-yl)methyl)picolinamido)-[1,1'-biphenyl]-3-yl)carbamoyl)-4,5,6,7-tetrahydropyrazolo[1,5-a]pyridin-4-yl)pyrrolidine-3-carboxylic acid]
< 10 nM | CC(=O)NCCN[C@@H]1CCCn2nc(C(=O)Nc3cccc(-c4cccc(NC(=O)c5ccc(CNCCO)cn5)c4Cl)c3Cl)cc21 [Compound 242, (R)-4-((2-acetamidoethyl)amino)-N-(2,2'-dichloro-3'-(5-(((2-hydroxyethyl)amino)methyl)picolinamido)-[1,1'-biphenyl]-3-yl)-4,5,6,7-tetrahydropyrazolo[1,5-a]pyridine-2-carboxamide]
10 to 100 nM | O=C(Nc1cccc(-c2cccc(Nc3nccc4cc(CN5CC[C@@H](O)C5)cnc34)c2Cl)c1Cl)c1cc2n(n1)CCCC2N1CCC(C(=O)O)CC1 (stereo partly drawn) [Compound 24, 1-(2-((2,2'-dichloro-3'-((3-(((R)-3-hydroxypyrrolidin-1-yl)methyl)-1,7-naphthyridin-8-yl)amino)-[1,1'-biphenyl]-3-yl)carbamoyl)-4,5,6,7-tetrahydropyrazolo[1,5-a]pyridin-4-yl)piperidine-4-carboxylic acid]
< 10 nM | Cc1c(Nc2nccc3cc(CN4CC[C@@H](O)C4)cnc23)cccc1-c1cccc(-c2cc3n(n2)CCCC3NCCO)c1C (stereo partly drawn) [Compound 174, (3R)-1-((8-((3'-(4-((2-hydroxyethyl)amino)-4,5,6,7-tetrahydropyrazolo[1,5-a]pyridin-2-yl)-2,2'-dimethyl-[1,1'-biphenyl]-3-yl)amino)-1,7-naphthyridin-3-yl)methyl)pyrrolidin-3-ol]
< 10 nM | O=C(Nc1cccc(-c2cccc(Nc3nc(C(F)F)nc4cccnc34)c2Cl)c1Cl)c1cc2n(n1)CCC[C@@H]2N1CCC(C(=O)O)CC1 [Compound 289, (S)-1-(2-((2,2'-dichloro-3'-((2-(difluoromethyl)pyrido[3,2-d]pyrimidin-4-yl)amino)-[1,1'-biphenyl]-3-yl)carbamoyl)-4,5,6,7-tetrahydropyrazolo[1,5-a]pyridin-4-yl)piperidine-4-carboxylic acid]
10 to 100 nM | COc1nc(-c2cccc(-c3cccc(-c4cc5n(n4)CCCC5N4CC[C@@H](O)C4)c3C)c2C)cnc1CNC[C@@H]1CCC(=O)N1 (stereo partly drawn) [Compound 164, (5S)-5-((((5-(3'-(4-((R)-3-hydroxypyrrolidin-1-yl)-4,5,6,7-tetrahydropyrazolo[1,5-a]pyridin-2-yl)-2,2'-dimethyl-[1,1'-biphenyl]-3-yl)-3-methoxypyrazin-2-yl)methyl)amino)methyl)pyrrolidin-2-one]
< 10 nM | CC(=O)NCCNC1CCCn2nc(C(=O)Nc3cccc(-c4cccc(Nc5nccc6cc(CN7CC[C@@H](O)C7)cnc56)c4C)c3C)cc21 (stereo partly drawn) [Compound 12, 4-((2-acetamidoethyl)amino)-N-(3'-((3-(((R)-3-hydroxypyrrolidin-1-yl)methyl)-1,7-naphthyridin-8-yl)amino)-2,2'-dimethyl-[1,1'-biphenyl]-3-yl)-4,5,6,7-tetrahydropyrazolo[1,5-a]pyridine-2-carboxamide]
10 to 100 nM | O=C(Nc1cccc(-c2cccc(Nc3nc(C(F)F)nc4cc(CN5CC[C@@H](O)C5)cnc34)c2Cl)c1Cl)c1cc2n(n1)CCCC2N1CC[C@@H](O)C1 (stereo partly drawn) [Compound 140, N-(2,2'-dichloro-3'-((2-(difluoromethyl)-7-(((R)-3-hydroxypyrrolidin-1-yl)methyl)pyrido[3,2-d]pyrimidin-4-yl)amino)-[1,1'-biphenyl]-3-yl)-4-((R)-3-hydroxypyrrolidin-1-yl)-4,5,6,7-tetrahydropyrazolo[1,5-a]pyridine-2-carboxamide]
< 10 nM | Cc1c(Nc2nccc3cc(CN4CC[C@@H](O)C4)cnc23)cccc1-c1cccc(NC(=O)c2cc3n(n2)CCCC3NC[C@@H]2CCC(=O)N2)c1Cl (stereo partly drawn) [Compound 31, N-(2-chloro-3'-((3-(((R)-3-hydroxypyrrolidin-1-yl)methyl)-1,7-naphthyridin-8-yl)amino)-2'-methyl-[1,1'-biphenyl]-3-yl)-4-((((S)-5-oxopyrrolidin-2-yl)methyl)amino)-4,5,6,7-tetrahydropyrazolo[1,5-a]pyridine-2-carboxamide]
< 10 nM | O[C@@H]1CCN(Cc2cnc3c(Nc4cccc(-c5cccc(-c6cc7n(n6)CCCC7N6CC[C@@H](O)C6)c5Cl)c4Cl)nccc3c2)C1 (stereo partly drawn) [Compound 183, (3R)-1-(2-(2,2'-dichloro-3'-((3-(((R)-3-hydroxypyrrolidin-1-yl)methyl)-1,7-naphthyridin-8-yl)amino)-[1,1'-biphenyl]-3-yl)-4,5,6,7-tetrahydropyrazolo[1,5-a]pyridin-4-yl)pyrrolidin-3-ol]
10 to 100 nM | Cc1c(NC(=O)c2cc3n(n2)CCCC3NCC(=O)O)cccc1-c1cccc(Nc2nc(C(F)F)nc3cc(CN4CC[C@@H](O)C4)cnc23)c1C (stereo partly drawn) [Compound 134, 2-((2-((3'-((2-(difluoromethyl)-7-(((R)-3-hydroxypyrrolidin-1-yl)methyl)pyrido[3,2-d]pyrimidin-4-yl)amino)-2,2'-dimethyl-[1,1'-biphenyl]-3-yl)carbamoyl)-4,5,6,7-tetrahydropyrazolo[1,5-a]pyridin-4-yl)amino)acetic acid]
< 10 nM | CC(=O)NCCNC1CCCn2nc(C(=O)Nc3cccc(-c4cccc(NC(=O)c5ccc(CN6CC[C@@H](O)C6)cn5)c4Cl)c3Cl)cc21 (stereo partly drawn) [Compound 103, 4-((2-acetamidoethyl)amino)-N-(2,2'-dichloro-3'-(5-(((R)-3-hydroxypyrrolidin-1-yl)methyl)picolinamido)-[1,1'-biphenyl]-3-yl)-4,5,6,7-tetrahydropyrazolo[1,5-a]pyridine-2-carboxamide]
< 10 nM | CC(=O)NCCNC1CCCn2nc(C(=O)Nc3cccc(-c4cccc(NC(=O)c5nc6c(s5)CN(C)CC6)c4C)c3C)cc21 (stereo not drawn) [Compound 148, N-(3'-(4-((2-acetamidoethyl)amino)-4,5,6,7-tetrahydropyrazolo[1,5-a]pyridine-2-carboxamido)-2,2'-dimethyl-[1,1'-biphenyl]-3-yl)-5-methyl-4,5,6,7-tetrahydrothiazolo[5,4-c]pyridine-2-carboxamide]
10 to 100 nM | COc1cc(-c2cccc(-c3cccc(NC(=O)c4cc5n(n4)CCCC5N4CC[C@@H](O)C4)c3Cl)c2Cl)cc(F)c1CNC[C@@H]1CCC(=O)N1 (stereo partly drawn) [Compound 127, N-(2,2'-dichloro-3"-fluoro-5"-methoxy-4"-(((((S)-5-oxopyrrolidin-2-yl)methyl)amino)methyl)-[1,1':3',1"-terphenyl]-3-yl)-4-((R)-3-hydroxypyrrolidin-1-yl)-4,5,6,7-tetrahydropyrazolo[1,5-a]pyridine-2-carboxamide]
100 to 1000 nM | CC(C)c1nc(Nc2cccc(-c3cccc(NC(=O)c4cc5n(n4)CCC[C@@H]5N4CC(C(=O)O)C4)c3Cl)c2Cl)c2ncccc2n1 [Compound 301, (S)-1-(2-((2,2'-dichloro-3'-((2-isopropyl-pyrido[3,2-d]pyrimidin-4-yl)amino)-[1,1'-biphenyl]-3-yl)carbamoyl)-4,5,6,7-tetrahydropyrazolo[1,5-a]pyridin-4-yl)azetidine-3-carboxylic acid]
10 to 100 nM | CC(C)(N[C@@H]1CCCn2nc(C(=O)Nc3cccc(-c4cccc(Nc5nc(C(F)F)nc6cc(CN7CC[C@@H](O)C7)cnc56)c4Cl)c3Cl)cc21)C(=O)O [Compound 259, 2-(((R)-2-((2,2'-dichloro-3'-((2-(difluoromethyl)-7-(((R)-3-hydroxypyrrolidin-1-yl)methyl)pyrido[3,2-d]pyrimidin-4-yl)amino)-[1,1'-biphenyl]-3-yl)carbamoyl)-4,5,6,7-tetrahydropyrazolo[1,5-a]pyridin-4-yl)amino)-2-methylpropanoic acid]
10 to 100 nM | Cc1c(NC(=O)c2cc3n(n2)CCC[C@H]3N2CCC(O)CC2)cccc1-c1cccc(Nc2nc(C(F)F)nc3cccnc23)c1C [Compound 288, (R)-N-(3'-((2-(difluoromethyl)pyrido[3,2-d]pyrimidin-4-yl)amino)-2,2'-dimethyl-[1,1'-biphenyl]-3-yl)-4-(4-hydroxypiperidin-1-yl)-4,5,6,7-tetrahydropyrazolo[1,5-a]pyridine-2-carboxamide]
< 10 nM | Cc1c(NC(=O)c2ccc(CNCCO)cn2)cccc1-c1cccc(NC(=O)c2cc3n(n2)CCCC3N2CCC(C(=O)O)CC2)c1C (stereo not drawn) [Compound 79, 1-(2-((3'-(5-(((2-hydroxyethyl)amino)methyl)picolinamido)-2,2'-dimethyl-[1,1'-biphenyl]-3-yl)carbamoyl)-4,5,6,7-tetrahydropyrazolo[1,5-a]pyridin-4-yl)piperidine-4-carboxylic acid]
